According to US9549928B2, “Muscarinic agonists as enhancers of cognitive flexibility” (THE UNIVERSITY OF TOLEDO, priority 2011, dated 2017):

Assays:
Type in all cases: in vivo, rat
male Long-Evans rats [1] = assay: Salivation studies, salivary output over 60 minutes after i.p. administration
Protocol: For studies of salivation, male Long-Evans rats were purchased from Charles River Laboratories (Wilmington, Mass.) weighing between 250-425 g. Animals were kept in a vivarium on a 12-h light/dark cycle. Humidity was maintained at 30-70%, and temperature was maintained at 20-24° C. All procedures were approved by the Institutional Animal Care and Use Committee at Mithridion, Inc.
Salivation was quantified in rats following i.p. administration of CDD-0102A. Rats were first anesthetized with isoflurane, and then dosed with CDD-0102 by i.p. injection. Anesthesia was maintained by a nose cone that delivered 1.5-2.5% isoflurane in 500 ml/minute of oxygen. CDD-0102A was dissolved in phosphate-buffered saline and the injection volume was 2 ml/kg. The hind limbs of anesthetized animals were taped to the top of an incline (25° grade) so that the animal was oriented with its head near the bottom of the slope and its dorsal-surface oriented upward. Body temperature was monitored by a rectal thermometer, and maintained at 36-38° C. by a heating pad. The animal's nose was inserted into a nose cone for maintaining anesthesia while the entire mouth remained outside this nose cone. Pre-weighed filter paper (approximately 5×5 cm) was placed underneath the mouth to absorb the draining saliva. After 5 minutes, the saliva-wetted filter paper was weighed and replaced with fresh, pre-weighed filter paper. Total salivary output was calculated by subtracting the mass of the filter paper from the combined mass of paper plus saliva as collected over 60 minutes.

male Long-Evans rats [2] = assay: Visual cue discrimination acquisition and switch to place discrimination (strategy switching); settings: 0.003 mg/kg i.p. before switch phase; vs controls
Protocol: In a separate experiment, the effect of CDD-0102A on initial learning of a visual cue strategy and switch to a place strategy was determined. All other aspects of the testing procedure were as described above. The treatment groups in this experiment were as follows: 1) saline—saline (n=8); 2) saline—CDD-0102A 0.003 mg/kg (n=7); 3) saline—CDD-0102A 0.03 mg/kg (n=7); 4) vehicle—CDD-0102A 0.1 mg/kg (n=8); 5) CDD-0102A 0.03 mg/kg-saline (n=7); or 6) CDD-0102A 0.01 mg/kg-saline (n=8).
These same types of errors were calculated in a similar manner for the experiment in which rats first learned a visual cue strategy and then switched to a place strategy.
In the spontaneous alternation task, a one-way analysis of variance was used to identify differences in percent alternation scores and number of arm entries across groups. Newman-Keuls post-hoc tests were used to compare treatment and control group measures. In the discrimination learning tests, one-way analyses of variance were used to identify differences in trials to criterion for acquisition and strategy switching. Separate analyses of variance were carried out to determine group differences in perseverative, regressive, and never-reinforced errors. Newman-Keuls post-hoc tests were used to compare differences between treatment groups.

male Long-Evans rats [3] = assay: Place discrimination acquisition and switch to visual cue discrimination (strategy switching); settings: i.p.
Protocol: A different group of rats was used for the discrimination learning and strategy switching tests from that used in the delayed spontaneous alternation test. Prior to testing, rats were food-restricted to maintain their weight at 85% of their free-feed weight, handled and trained in the maze to obtain half piece of Froot Loops® cereal in the cross-maze.
Following training, each rat was tested across two consecutive days. In the first experiment each rat had to learn a place discrimination. Rats were started in a pseudorandom manner from one of two different arms such that any start arm was not used more than 3 consecutive trials. The two start arms (“east” and “west”) were always opposite each other. A black plastic block was placed in the entrance of the maze arm opposite to that of the start arm, giving the maze a T-shape. Thus, the same two choice arms were used no matter what start arm was used. A rat was started in the stem arm with only one of the two choice arms baited. In the acquisition phase, one choice arm or place was designated the reinforced arm which contained a ½ piece of cereal reinforcement on each trial. In this phase, a rat was required to enter the reinforced arm containing a ½ piece of cereal. […]
In the switch phase of each experiment, the errors committed were separated into different categories and analyzed. […]

male Long-Evans rats [4] = assay: Delayed spontaneous alternation in a 4-arm cross maze (30 second delay); settings: i.p.
Protocol: For behavioral studies, male Long-Evans rats were purchased from Harlan (Indianapolis, Ind.) weighing between 325-375 g. Rats were individually housed in plastic cages (20.3 cm×20.3 cm×41.9 cm) in an environmentally controlled room (23° C., 30% humidity) on a 12 h:12 h light:dark cycle (lights on at 7:00 am). After at least four days to acclimate to the colony room, rats were handled for 10 minutes per day for four days to adjust to being handled during training and testing. At the same time rats began to be handled, rats were also food restricted to reduce their weight to 85-90% of their ad libitum weight. Rats had free access to water throughout the experiment. Animal care and use conformed to the guidelines of the National Institutes of Health Guide for the Care and Use of Laboratory Animals, and was approved by the Institutional Laboratory Animal Care and Use Committee at the University of Illinois at Chicago.
All behavioral testing occurred in a cross maze made of translucent black acrylic. Each arm measured 55 cm long, 10 cm wide, and 15 cm in height. A circular food well, with a diameter of 3.2 cm and a depth of 1.6 cm was placed 3 cm from the end of each arm. […]
In this test, rats were placed in the testing room 5 minutes prior to behavioral testing. […] The number and sequence of arm entries was recorded. An arm entry was recorded when all four paws entered an arm. […]

normal rats [5] = assay: Example 2: attentional set-shifting model, visual cue strategy shifted to place strategy; settings: injection before acquisition (FIG. 8A)
Source text: The whole experiment was repeated with the rats learning first a visual cue strategy and then being switched to a place strategy.

normal rats [6] = assay: Example 2: attentional set-shifting model, place strategy shifted to visual cue strategy; settings: injection before acquisition (FIG. 7A)
Source text: The beneficial effects of CDD-0102A in the rat model of cognitive flexibility are among the strongest evidence providing the scientific rationale for CDD-0102A in the treatment of PSP. The inventors have developed several models of cognitive flexibility, including the model of attentional set shifting involving an extradimensional set shift described here. The model involves a place-visual cue task. Rats first learned to use a place strategy—always to enter the same arm to receive a food reward. Criterion was set at 10 consecutive correct trials. The following day, rats had to inhibit the place strategy and to learn a new visual cue strategy to receive the reward. Local visual cues in the maze arms included a black board in one arm and white board in the other arm. The cues were switched between the choice arms randomly across trials so the same cue was not always in the same location. The rat had to choose the arm that contained a particular color cue (e.g., black) in order to receive the reward. The criterion again was set at 10 consecutive correct trials.
Rats received either saline (N=3) or CDD-0102A at various doses 30 minutes prior to testing.

- salivary output over 60 minutes (male Long-Evans rats [1]; 0.1 mg/kg i.p.): no salivation
- salivary output over 60 minutes (male Long-Evans rats [1]; 5 mg/kg i.p. (most salivation), mean ± SEM): 4,685±449 μl
- salivary output over 60 minutes (male Long-Evans rats [1]; 10 mg/kg i.p., compared with 5 mg/kg dose, P>0.5): not significantly different
- separation between dose enhancing place-visual cue task (0.03 mg/kg ip) and dose producing half-maximum salivation (male Long-Evans rats [1]; efficacious dose lower than dose producing half-maximum salivation): approximately 100 fold
- lowest dose that produced salivation (male Long-Evans rats [1]; i.p.): 0.3 mg/kg
Structure (SMILES): CCc1noc(C2CN=CNC2)n1 (stereo not shown) [CDD-0102A, 5-(3-ethyl-1,2,4-oxadiazol-5-yl)-1,4,5,6-tetrahydropyrimidine]
- trials to criterion, switch to place strategy (male Long-Evans rats [2]): no significant effect
- dose at which effect on strategy switching is maximal (male Long-Evans rats [3]): 0.03 mg/kg
- dose at which significant improvement in memory function was observed (male Long-Evans rats [4]): ≥ 0.1 mg/kg
- acquisition of the visual-cue strategy (normal rats [5]): no effect
- acquisition of the place-cue strategy (normal rats [6]): no effect
